Source: PubChem BioAssay (NCI)
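Where inhibition never reached the appropriate level, the endpoint shown equals the highest concentration tested. Otherwise, values were interpolated linearly from a five-concentration, 48-hour dose response in 96-well plates. TGI: total growth inhibition.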

Experiments:
Assay in all cases: growth of human tumour cells (NCI), 48 h
[1] = system: HOP-18 NSCLC
[2] = system: COLO 205 colon
[3] = system: OVCAR-8 ovarian
[4] = system: HCT-116 colon
[5] = system: M19-MEL melanoma
[6] = system: UACC-257 melanoma
[7] = system: SK-MEL-2 melanoma
[8] = system: SF-539 CNS
[9] = system: HOP-92 NSCLC
[10] = system: SN12C renal
[11] = system: OVCAR-3 ovarian
[12] = system: SW-620 colon
[13] = system: XF 498 CNS
[14] = system: SK-OV-3 ovarian
[15] = system: DMS 273 small cell lung
[16] = system: IGROV1 ovarian
[17] = system: SK-MEL-28 melanoma
[18] = system: K-562 leukemia
[19] = system: M14 melanoma
[20] = system: DMS 114 small cell lung
[21] = system: CAKI-1 renal
[22] = system: A549 NSCLC
[23] = system: LXFL 529 NSCLC
[24] = system: A498 renal
[25] = system: HCT-15 colon
[26] = system: DLD-1 colon
[27] = system: SNB-78 CNS
[28] = system: HL-60(TB) leukemia
[29] = system: HCC-2998 colon
[30] = system: SNB-75 CNS
[31] = system: HOP-62 NSCLC
[32] = system: EKVX NSCLC
[33] = system: ACHN renal
[34] = system: OVCAR-5 ovarian
[35] = system: 786-0 renal
[36] = system: TK-10 renal
[37] = system: NCI-H460 lung
[38] = system: NCI-H226 lung
[39] = system: UO-31 renal
[40] = system: SR leukemia
[41] = system: NCI-H522 lung
[42] = system: CCRF-CEM leukemia
[43] = system: RXF 393 renal
[44] = system: OVCAR-4 ovarian
[45] = system: SF-295 CNS
[46] = system: KM12 colon
[47] = system: SF-268 CNS
[48] = system: NCI-H23 lung
[49] = system: MALME-3M melanoma
[50] = system: UACC-62 melanoma
[51] = system: HT29 colon
[52] = system: U251 CNS
[53] = system: SNB-19 CNS
[54] = system: KM20L2 colon
[55] = system: LOX IMVI melanoma
[56] = system: SK-MEL-5 melanoma
[57] = system: RPMI-8226 leukemia
[58] = system: MOLT-4 leukemia

For CS(=O)(=O)Oc1cccc(/C=N/N=C(\N)NO)c1, the TGI [1] was > 100 µM, the TGI [2] was > 100 µM and the TGI [3] was > 100 µM. For the same compound, the TGI [4] was > 100 µM, the TGI [5] was > 100 µM and the TGI [6] was > 100 µM. The TGI [7] was > 100 µM, the TGI [8] was > 100 µM and the TGI [9] was > 100 µM. The TGI [10] was > 100 µM, the TGI [11] was > 100 µM and the TGI [12] was 63.4 µM. For the same compound, the TGI [13] was 32.5 µM, the TGI [14] was 70.8 µM and the TGI [15] was 65.8 µM. The TGI [16] was > 100 µM, the TGI [17] was > 100 µM and the TGI [18] was > 100 µM. For the same compound, the TGI [19] was > 100 µM, the TGI [20] was > 100 µM and the TGI [21] was > 100 µM. The TGI [22] was > 100 µM, the TGI [23] was > 100 µM and the TGI [24] was > 100 µM. For the same compound, the TGI [25] was > 100 µM, the TGI [26] was > 100 µM and the TGI [27] was > 100 µM. For the same compound, the TGI [28] was 52.4 µM, the TGI [29] was 59.1 µM and the TGI [30] was > 100 µM. The TGI [31] was > 100 µM, the TGI [32] was > 100 µM and the TGI [33] was 66.1 µM. The TGI [34] was > 100 µM, the TGI [35] was 54.3 µM and the TGI [36] was 27.9 µM. For the same compound, the TGI [37] was > 100 µM, the TGI [38] was 95.6 µM and the TGI [39] was > 100 µM. For the same compound, the TGI [40] was > 100 µM, the TGI [41] was > 100 µM and the TGI [42] was > 100 µM. For the same compound, the TGI [43] was > 100 µM, the TGI [44] was > 100 µM and the TGI [45] was > 100 µM. For the same compound, the TGI [46] was > 100 µM, the TGI [47] was > 100 µM and the TGI [48] was > 100 µM. For the same compound, the TGI [49] was > 100 µM, the TGI [50] was 19.5 µM and the TGI [51] was > 100 µM. The TGI [52] was > 100 µM and the TGI [53] was > 100 µM.

For COc1cc(OC)c(/C=C2\N=C(C)N(Nc3nnc(NN4C(=O)/C(=C/c5c(OC)cc(OC)cc5OC)N=C4C)c4ccccc34)C2=O)c(OC)c1, the TGI [1] was > 100 µM, the TGI [2] was > 100 µM and the TGI [3] was > 100 µM. For the same compound, the TGI [54] was > 100 µM, the TGI [4] was > 100 µM and the TGI [5] was > 100 µM. For the same compound, the TGI [6] was > 100 µM, the TGI [8] was > 100 µM and the TGI [55] was > 100 µM. The TGI [9] was > 100 µM, the TGI [10] was > 100 µM and the TGI [12] was > 100 µM. For the same compound, the TGI [15] was > 100 µM, the TGI [56] was > 100 µM and the TGI [16] was > 100 µM. The TGI [17] was > 100 µM, the TGI [18] was > 100 µM and the TGI [19] was > 100 µM. For the same compound, the TGI [20] was > 100 µM, the TGI [57] was > 100 µM and the TGI [22] was > 100 µM. The TGI [23] was > 100 µM, the TGI [24] was > 100 µM and the TGI [25] was > 100 µM. For the same compound, the TGI [26] was > 100 µM, the TGI [27] was > 100 µM and the TGI [28] was > 100 µM. For the same compound, the TGI [30] was > 100 µM, the TGI [31] was > 100 µM and the TGI [32] was > 100 µM. For the same compound, the TGI [33] was > 100 µM, the TGI [34] was > 100 µM and the TGI [35] was > 100 µM. The TGI [58] was > 100 µM, the TGI [37] was > 100 µM and the TGI [38] was > 100 µM. The TGI [40] was > 100 µM, the TGI [41] was > 100 µM and the TGI [42] was > 100 µM. For the same compound, the TGI [43] was > 100 µM, the TGI [44] was > 100 µM and the TGI [45] was > 100 µM. The TGI [46] was > 100 µM, the TGI [47] was > 100 µM and the TGI [48] was > 100 µM. For the same compound, the TGI [50] was > 100 µM, the TGI [51] was > 100 µM and the TGI [52] was > 100 µM. For the same compound, the TGI [53] was > 100 µM.

For C[Si](C)(C)OC1(C#N)C2C3CC4C2C(=O)C2C4C3C21 (configuration not stated), the TGI [1] was > 100 µM, the TGI [2] was > 100 µM and the TGI [3] was > 100 µM. The TGI [54] was > 100 µM, the TGI [4] was > 100 µM and the TGI [5] was > 100 µM. The TGI [6] was > 100 µM, the TGI [7] was > 100 µM and the TGI [8] was > 100 µM. For the same compound, the TGI [10] was > 100 µM, the TGI [11] was > 100 µM and the TGI [12] was > 100 µM. For the same compound, the TGI [14] was > 100 µM, the TGI [15] was > 100 µM and the TGI [56] was > 100 µM. The TGI [16] was > 100 µM, the TGI [17] was > 100 µM and the TGI [18] was > 100 µM. For the same compound, the TGI [19] was > 100 µM, the TGI [20] was > 100 µM and the TGI [57] was > 100 µM. For the same compound, the TGI [21] was > 100 µM, the TGI [22] was > 100 µM and the TGI [23] was > 100 µM. For the same compound, the TGI [24] was > 100 µM, the TGI [25] was > 100 µM and the TGI [26] was > 100 µM. The TGI [27] was > 100 µM, the TGI [28] was > 100 µM and the TGI [29] was > 100 µM. The TGI [30] was > 100 µM, the TGI [31] was > 100 µM and the TGI [33] was > 100 µM. For the same compound, the TGI [35] was > 100 µM, the TGI [58] was > 100 µM and the TGI [36] was > 100 µM. The TGI [37] was > 100 µM, the TGI [38] was > 100 µM and the TGI [39] was > 100 µM. The TGI [40] was > 100 µM, the TGI [42] was > 100 µM and the TGI [43] was > 100 µM. The TGI [44] was > 100 µM, the TGI [46] was > 100 µM and the TGI [47] was > 100 µM. The TGI [49] was > 100 µM, the TGI [50] was > 100 µM and the TGI [52] was > 100 µM. The TGI [53] was > 100 µM.

For O=S(=O)(c1ccccc1)C(CN1CCCCC1)S(=O)(=O)c1ccccc1, the TGI [2] was > 100 µM, the TGI [3] was > 100 µM and the TGI [54] was > 100 µM. The TGI [5] was > 100 µM, the TGI [6] was > 100 µM and the TGI [7] was > 100 µM. The TGI [8] was > 100 µM, the TGI [55] was > 100 µM and the TGI [9] was > 100 µM. The TGI [10] was > 100 µM, the TGI [11] was > 100 µM and the TGI [12] was > 100 µM. For the same compound, the TGI [13] was > 100 µM, the TGI [14] was > 100 µM and the TGI [15] was > 100 µM. The TGI [16] was > 100 µM, the TGI [17] was > 100 µM and the TGI [18] was > 100 µM. For the same compound, the TGI [19] was > 100 µM, the TGI [57] was > 100 µM and the TGI [21] was > 100 µM. For the same compound, the TGI [22] was > 100 µM, the TGI [23] was > 100 µM and the TGI [25] was > 100 µM. The TGI [26] was > 100 µM, the TGI [28] was > 100 µM and the TGI [29] was > 100 µM. The TGI [30] was > 100 µM, the TGI [31] was > 100 µM and the TGI [33] was > 100 µM. The TGI [34] was > 100 µM, the TGI [35] was > 100 µM and the TGI [58] was > 100 µM. For the same compound, the TGI [36] was > 100 µM, the TGI [37] was > 100 µM and the TGI [38] was > 100 µM. The TGI [39] was > 100 µM, the TGI [40] was > 100 µM and the TGI [41] was > 100 µM. The TGI [42] was > 100 µM, the TGI [43] was > 100 µM and the TGI [44] was > 100 µM. The TGI [45] was > 100 µM, the TGI [46] was > 100 µM and the TGI [47] was > 100 µM. The TGI [48] was > 100 µM, the TGI [49] was > 100 µM and the TGI [50] was > 100 µM. For the same compound, the TGI [51] was > 100 µM, the TGI [52] was > 100 µM and the TGI [53] was > 100 µM.
